According to PubChem BioAssay (NCI):
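Test compounds were applied to cells in 96-well plates for 48 hours at 5 doses. At the TGI there is no net growth.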

Columns and labels:
Assay in all cases: NCI anticancer screen, dose series, 48 h
[1] = system: IGROV1 ovarian
[2] = system: HCT-15 colon
[3] = system: HCT-116 colon
[4] = system: SK-MEL-28 melanoma
[5] = system: MOLT-4 leukemia
[6] = system: KM20L2 colon
[7] = system: HCC-2998 colon
[8] = system: HT29 colon
[9] = system: OVCAR-8 ovarian
[10] = system: SF-539 CNS
[11] = system: DMS 273 small cell lung
[12] = system: NCI-H23 lung
[13] = system: RPMI-8226 leukemia
[14] = system: SR leukemia
[15] = system: UACC-62 melanoma
[16] = system: KM12 colon
[17] = system: COLO 205 colon
[18] = system: 786-0 renal
[19] = system: A549 NSCLC
[20] = system: SN12C renal
[21] = system: SF-295 CNS
[22] = system: OVCAR-4 ovarian
[23] = system: K-562 leukemia
[24] = system: SK-OV-3 ovarian
[25] = system: SF-268 CNS
[26] = system: SW-620 colon
[27] = system: TK-10 renal
[28] = system: M19-MEL melanoma
[29] = system: XF 498 CNS
[30] = system: UACC-257 melanoma
[31] = system: CCRF-CEM leukemia
[32] = system: SK-MEL-5 melanoma
[33] = system: SNB-75 CNS
[34] = system: M14 melanoma
[35] = system: LOX IMVI melanoma
[36] = system: HOP-92 NSCLC
[37] = system: NCI-H522 lung
[38] = system: OVCAR-5 ovarian
[39] = system: SK-MEL-2 melanoma
[40] = system: SNB-19 CNS
[41] = system: NCI-H460 lung
[42] = system: MALME-3M melanoma
[43] = system: U251 CNS
[44] = system: LXFL 529 NSCLC
[45] = system: DLD-1 colon
[46] = system: RXF 393 renal
[47] = system: SNB-78 CNS
[48] = system: OVCAR-3 ovarian
[49] = system: EKVX NSCLC
[50] = system: HL-60(TB) leukemia
[51] = system: UO-31 renal
[52] = system: NCI-H226 lung
[53] = system: HOP-18 NSCLC
[54] = system: ACHN renal
[55] = system: DMS 114 small cell lung
[56] = system: CAKI-1 renal
[57] = system: A498 renal
[58] = system: HOP-62 NSCLC

## NC1=NS(=O)(=O)Nc2nc(-c3ccccc3)c(-c3ccccc3)nc21
[1]
  TGI: > 100 µM
[2]
  TGI: > 100 µM
[3]
  TGI: > 100 µM
[4]
  TGI: > 100 µM
[5]
  TGI: > 100 µM
[6]
  TGI: > 100 µM
[7]
  TGI: > 100 µM
[8]
  TGI: > 100 µM
[9]
  TGI: > 100 µM
[10]
  TGI: > 100 µM
[11]
  TGI: > 100 µM
[12]
  TGI: > 100 µM
[13]
  TGI: > 100 µM
[14]
  TGI: > 100 µM
[15]
  TGI: > 100 µM
[16]
  TGI: > 100 µM
[17]
  TGI: > 100 µM
[18]
  TGI: > 100 µM
[19]
  TGI: > 100 µM
[20]
  TGI: > 100 µM
[21]
  TGI: > 100 µM
[22]
  TGI: > 100 µM
[23]
  TGI: > 100 µM
[24]
  TGI: > 100 µM
[25]
  TGI: > 100 µM
[26]
  TGI: > 100 µM
[27]
  TGI: > 100 µM
[28]
  TGI: > 100 µM
[29]
  TGI: > 100 µM
[30]
  TGI: > 100 µM
[31]
  TGI: > 100 µM
[32]
  TGI: > 100 µM
[33]
  TGI: > 100 µM
[34]
  TGI: > 100 µM
[35]
  TGI: > 100 µM
[36]
  TGI: > 100 µM
[37]
  TGI: > 100 µM
[38]
  TGI: > 100 µM
[39]
  TGI: > 100 µM
[40]
  TGI: > 100 µM
[41]
  TGI: > 100 µM
[42]
  TGI: > 100 µM
[43]
  TGI: > 100 µM
[44]
  TGI: > 100 µM
[45]
  TGI: > 100 µM
[46]
  TGI: > 100 µM
[47]
  TGI: > 100 µM
[48]
  TGI: > 100 µM
[49]
  TGI: > 100 µM
[50]
  TGI: > 100 µM
[51]
  TGI: > 100 µM
[52]
  TGI: > 100 µM
[53]
  TGI: > 100 µM
[54]
  TGI: > 100 µM

## CCCOP1(=O)C=CC(Cl)=C(C)C1 (stereo not drawn)
[1]
  TGI: > 100 µM
[2]
  TGI: 39.7 µM
[55]
  TGI: 89.3 µM
[3]
  TGI: 33.5 µM
[56]
  TGI: > 95.9 µM
[57]
  TGI: > 100 µM
[4]
  TGI: 42.8 µM
[5]
  TGI: 22.2 µM
[58]
  TGI: > 100 µM
[6]
  TGI: > 100 µM
[7]
  TGI: > 100 µM
[8]
  TGI: > 100 µM
[9]
  TGI: 47.5 µM
[10]
  TGI: > 68.2 µM
[12]
  TGI: > 100 µM
[13]
  TGI: 60.1 µM
[15]
  TGI: 52.2 µM
[16]
  TGI: 50.4 µM
[17]
  TGI: 33.9 µM
[18]
  TGI: 76 µM
[19]
  TGI: > 100 µM
[20]
  TGI: > 100 µM
[21]
  TGI: > 100 µM
[22]
  TGI: > 100 µM
[23]
  TGI: > 31.6 µM
[24]
  TGI: > 100 µM
[25]
  TGI: > 100 µM
[26]
  TGI: 42.2 µM
[27]
  TGI: > 100 µM
[29]
  TGI: > 93.1 µM
[30]
  TGI: 64.3 µM
[31]
  TGI: 19.7 µM
[32]
  TGI: > 100 µM
[33]
  TGI: > 100 µM
[34]
  TGI: > 61.3 µM
[35]
  TGI: > 100 µM
[36]
  TGI: > 100 µM
[37]
  TGI: 31.6 µM
[38]
  TGI: > 100 µM
[39]
  TGI: > 89.5 µM
[40]
  TGI: > 100 µM
[41]
  TGI: > 100 µM
[42]
  TGI: 52.1 µM
[43]
  TGI: > 100 µM
[44]
  TGI: > 61.1 µM
[45]
  TGI: 47.9 µM
[46]
  TGI: 33.4 µM
[47]
  TGI: > 100 µM
[48]
  TGI: > 75.2 µM
[49]
  TGI: > 88 µM
[51]
  TGI: > 100 µM
[53]
  TGI: > 100 µM
[54]
  TGI: > 66.5 µM

## O=C(Nc1nc2ncn(CCNCCn3cnc4nc(NC(=O)c5ccccc5)[nH]c(=O)c43)c2c(=O)[nH]1)c1ccccc1
[1]
  TGI: > 100 µM
[2]
  TGI: > 100 µM
[3]
  TGI: > 100 µM
[56]
  TGI: > 100 µM
[57]
  TGI: > 100 µM
[4]
  TGI: > 100 µM
[5]
  TGI: > 100 µM
[58]
  TGI: > 100 µM
[6]
  TGI: > 100 µM
[7]
  TGI: > 100 µM
[8]
  TGI: > 100 µM
[9]
  TGI: > 100 µM
[10]
  TGI: > 100 µM
[11]
  TGI: > 100 µM
[12]
  TGI: > 100 µM
[13]
  TGI: > 100 µM
[15]
  TGI: > 100 µM
[16]
  TGI: > 100 µM
[17]
  TGI: > 100 µM
[18]
  TGI: > 100 µM
[19]
  TGI: > 100 µM
[20]
  TGI: > 100 µM
[21]
  TGI: > 100 µM
[22]
  TGI: > 100 µM
[23]
  TGI: > 100 µM
[24]
  TGI: > 100 µM
[25]
  TGI: > 100 µM
[26]
  TGI: > 100 µM
[27]
  TGI: > 100 µM
[28]
  TGI: > 100 µM
[29]
  TGI: > 100 µM
[30]
  TGI: > 100 µM
[31]
  TGI: > 100 µM
[32]
  TGI: > 100 µM
[33]
  TGI: > 100 µM
[34]
  TGI: > 100 µM
[35]
  TGI: > 100 µM
[36]
  TGI: > 100 µM
[37]
  TGI: > 100 µM
[38]
  TGI: > 100 µM
[39]
  TGI: > 100 µM
[40]
  TGI: > 100 µM
[41]
  TGI: > 100 µM
[42]
  TGI: > 100 µM
[43]
  TGI: > 100 µM
[44]
  TGI: > 100 µM
[45]
  TGI: > 100 µM
[46]
  TGI: > 100 µM
[47]
  TGI: > 100 µM
[48]
  TGI: > 100 µM
[49]
  TGI: > 100 µM
[50]
  TGI: > 100 µM
[51]
  TGI: > 100 µM
[52]
  TGI: > 100 µM
[53]
  TGI: > 100 µM
[54]
  TGI: > 100 µM
